Results from US10183938B2, “Geminal substituted quinuclidine amide compounds as agonists of α-7 nicotonic acetylcholine receptors” (AXOVANT SCIENCES GMBH, priority 2014, dated 2019).
Counter-ions that a name gives are not always drawn.

Target: human 5-HT3 serotonin receptors (Homo sapiens (Human), UniProt P46098)
Test: [3H]BRL 43694 competition binding
Conditions: CHO cell membranes, [3H]BRL 43694, Cheng Prusoff; read-out: h-5HT3 Ki

human 5-HT3 serotonin receptors, sequence (P46098 24-478): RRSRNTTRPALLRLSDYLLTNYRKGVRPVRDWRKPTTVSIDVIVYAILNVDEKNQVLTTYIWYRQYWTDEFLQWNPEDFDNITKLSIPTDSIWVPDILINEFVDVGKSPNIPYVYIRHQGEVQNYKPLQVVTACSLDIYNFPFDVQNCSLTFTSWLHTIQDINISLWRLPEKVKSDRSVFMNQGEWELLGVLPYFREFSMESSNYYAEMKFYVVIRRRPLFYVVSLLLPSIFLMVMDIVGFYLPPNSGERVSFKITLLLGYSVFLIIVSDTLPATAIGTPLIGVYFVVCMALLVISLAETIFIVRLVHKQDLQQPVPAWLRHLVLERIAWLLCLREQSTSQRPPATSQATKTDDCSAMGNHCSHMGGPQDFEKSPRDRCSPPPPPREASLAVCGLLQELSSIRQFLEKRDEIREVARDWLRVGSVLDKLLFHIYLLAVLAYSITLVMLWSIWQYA

Point of comparison: `O=C(N[C@@H]1C2CCN(CC2)C12CC2)c1cc2ccccc2[nH]1` [(R)-170, (R)—N-(1′-azaspiro[cyclopropane-1,2′-bicyclo[2.2.2]octan]-3′-yl)-1H-indole-2-carboxamide hydrochloride], Ki 0.8 µM. Against it:
- O=C(N[C@@H]1C2CCN(CC2)C12CC2)c1cc2cccc(OC(F)(F)F)c2s1 [(R)-167, (R)—N-(1′-azaspiro[cyclopropane-1,2′-bicyclo[2.2.2]octan]-3′-yl)-7-(trifluoromethoxy)benzo[b]thiophene-2-carboxamide hydrochloride] — within 1.5-fold, 0.895 µM
- CC1(C)[C@H](NC(=O)c2cc3cc(F)c(Cl)cc3s2)C2CCN1CC2 [(R)-123, (R)-6-chloro-N-(2,2-dimethylquinuclidin-3-yl)-5-fluorobenzo[b]thiophene-2-carboxamide hydrochloride] — higher, > 10 µM
- COc1c(Cl)ccc2cc(C(=O)N[C@@H]3C4CCN(CC4)C34CC4)sc12 [(R)-192, (R)-6-chloro-7-methoxy-N-(1′-azaspiro[cyclopropane-1,2′-bicyclo[2.2.2]octan]-3′-yl)benzo[b]thiophene-2-carboxamide hydrochloride] — higher, > 10 µM
- O=C(N[C@@H]1C2CCN(CC2)C12CC2)c1n[nH]c2ccccc12 [(R)-194, (R)—N-(1′-azaspiro[cyclopropane-1,2′-bicyclo[2.2.2]octan]-3′-yl)-1H-indazole-3-carboxamide hydrochloride] — 10-fold lower, 0.079 µM
- Cc1cccc2cc(C(=O)N[C@@H]3C4CCN(CC4)C34CC4)sc12 [(R)-176, (R)-7-methyl-N-(1′-azaspiro[cyclopropane-1,2′-bicyclo[2.2.2]octan]-3′-yl)benzo[b]thiophene-2-carboxamide hydrochloride] — 6.2-fold lower, 0.13 µM
- CC(C)c1cccc2cc(C(=O)N[C@@H]3C4CCN(CC4)C34CC4)sc12 [(R)-166, (R)-7-isopropyl-N-(1′-azaspiro[cyclopropane-1,2′-bicyclo[2.2.2]octan]-3′-yl)benzo[b]thiophene-2-carboxamide hydrochloride] — 2.5-fold lower, 0.325 µM
- CC1(C)[C@H](NC(=O)c2cc3cccc(-c4ccccc4)c3s2)C2CCN1CC2 [(R)-132, (R)—N-(2,2-dimethylquinuclidin-3-yl)-7-phenylbenzo[b]thiophene-2-carboxamide hydrochloride] — 8-fold lower, 0.1 µM
- O=C(N[C@@H]1C2CCN(CC2)C12CC2)c1cc2cc(F)c(Cl)c(F)c2s1 [(R)-175, (R)-6-chloro-5,7-difluoro-N-(1′-azaspiro[cyclopropane-1,2′-bicyclo[2.2.2]octan]-3′-yl)benzo[b]thiophene-2-carboxamide hydrochloride] — higher, > 10 µM
- COc1c(C)ccc2cc(C(=O)N[C@@H]3C4CCN(CC4)C34CC4)sc12 [(R)-193, (R)-7-methoxy-6-methyl-N-(1′-azaspiro[cyclopropane-1,2′-bicyclo[2.2.2]octan]-3′-yl)benzo[b]thiophene-2-carboxamide hydrochloride] — 7.5-fold higher, 6 µM
- Cc1ccc2cc(C(=O)N[C@@H]3C4CCN(CC4)C34CC4)sc2c1C#N [(R)-198, (R)-7-cyano-6-methyl-N-(1′-azaspiro[cyclopropane-1,2′-bicyclo[2.2.2]octan]-3′-yl)benzo[b]thiophene-2-carboxamide hydrochloride] — higher, > 10 µM
- O=C(N[C@@H]1C2CCN(CC2)C12CC2)c1cc2cccc(CC(F)(F)F)c2s1 [(R)-177, (R)—N-(1′-azaspiro[cyclopropane-1,2′-bicyclo[2.2.2]octan]-3′-yl)-7-(2,2,2-trifluoroethyl)benzo[b]thiophene-2-carboxamide hydrochloride] — within 1.5-fold, 0.69 µM
- O=C(N[C@@H]1C2CCN(CC2)C12CC2)c1cc2cccc(-c3nccs3)c2s1 [(R)-181, (R)—N-(1′-azaspiro[cyclopropane-1,2′-bicyclo[2.2.2]octan]-3′-yl)-7-(thiazol-2-yl)benzo[b]thiophene-2-carboxamide hydrochloride] — 9.6-fold lower, 0.083 µM
- COCc1cccc2cc(C(=O)N[C@@H]3C4CCN(CC4)C3(C)C)sc12 [(R)-143, (R)—N-(2,2-dimethylquinuclidin-3-yl)-7-(methoxymethyl)benzo[b]thiophene-2-carboxamide hydrochloride] — within 1.5-fold, 0.74 µM
- COc1c(C2CC2)ccc2cc(C(=O)N[C@@H]3C4CCN(CC4)C34CC4)sc12 [(R)-262, (R)-6-cyclopropyl-7-methoxy-N-(1′-azaspiro[cyclopropane-1,2′-bicyclo[2.2.2]octan]-3′-yl)benzo[b]thiophene-2-carboxamide hydrochloride] — higher, > 10 µM
- Cc1ccc2cc(C(=O)N[C@@H]3C4CCN(CC4)C3(C)C)sc2c1C1CC1 [(R)-140, (R)-7-cyclopropyl-N-(2,2-dimethylquinuclidin-3-yl)-6-methylbenzo[b]thiophene-2-carboxamide hydrochloride] — 28-fold higher, 22 µM
- O=C(N[C@@H]1C2CCN(CC2)C12CC2)c1ccc2oc(C3CC3)cc2c1 [(R)-183, (R)-2-cyclopropyl-N-(1′-azaspiro[cyclopropane-1,2′-bicyclo[2.2.2]octan]-3′-yl)benzofuran-5-carboxamide hydrochloride] — higher, > 10 µM
- Cc1cccc2cc(C(=O)N[C@@H]3C4CCN(CC4)C3(C)C)sc12 [(R)-126, (R)—N-(2,2-dimethylquinuclidin-3-yl)-7-methylbenzo[b]thiophene-2-carboxamide hydrochloride] — 4.7-fold lower, 0.17 µM
- CC1(c2cccc3cc(C(=O)N[C@@H]4C5CCN(CC5)C4(C)C)sc23)CC1 [(R)-133, (R)—N-(2,2-dimethylquinuclidin-3-yl)-7-(1-methylcyclopropyl)benzo[b]thiophene-2-carboxamide hydrochloride] — 2-fold lower, 0.4 µM
- O=C(N[C@@H]1C2CCN(CC2)C12CC2)c1ccc2cc(Cl)sc2c1 [(R)-203, (R)-2-chloro-N-(1′-azaspiro[cyclopropane-1,2′-bicyclo[2.2.2]octan]-3′-yl)benzo[b]thiophene-6-carboxamide hydrochloride] — 2.9-fold higher, 2.3 µM
- CC1(c2cccc3cc(C(=O)N[C@@H]4C5CCN(CC5)C45CC5)sc23)CC1 [(R)-188, (R)-7-(1-methylcyclopropyl)-N-(1′-azaspiro[cyclopropane-1,2′-bicyclo[2.2.2]octan]-3′-yl)benzo[b]thiophene-2-carboxamide-hydrochloride] — 4-fold lower, 0.2 µM
- CC1(C)[C@H](NC(=O)c2cc3cccc(CC(F)(F)F)c3s2)C2CCN1CC2 [(R)-127, (R)—N-(2,2-dimethylquinuclidin-3-yl)-7-(2,2,2-trifluoroethyl)benzo[b]thiophene-2-carboxamide hydrochloride] — within 1.5-fold, 1.1 µM

Target: human α7 nAChRs transiently expressed in Xenopus laevis oocytes (Homo sapiens (Human), UniProt P36544)
Test: Oocyte electrophysiology screen (TEVC)
Type: cell-based
Conditions: 0.01 mM test compound, peak current relative to 0.2 mM ACh
In short: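 Peak inward current from 0.01 mM compound, applied 30 s, is expressed relative to a 5 s 0.2 mM ACh reference response, in triplicate. Recordings used two-electrode voltage clamp at −80 mV in Xenopus oocytes with 90 s OR2 washes.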

human α7 nAChRs transiently expressed in Xenopus laevis oocytes, sequence (P36544 23-502 limits assumed): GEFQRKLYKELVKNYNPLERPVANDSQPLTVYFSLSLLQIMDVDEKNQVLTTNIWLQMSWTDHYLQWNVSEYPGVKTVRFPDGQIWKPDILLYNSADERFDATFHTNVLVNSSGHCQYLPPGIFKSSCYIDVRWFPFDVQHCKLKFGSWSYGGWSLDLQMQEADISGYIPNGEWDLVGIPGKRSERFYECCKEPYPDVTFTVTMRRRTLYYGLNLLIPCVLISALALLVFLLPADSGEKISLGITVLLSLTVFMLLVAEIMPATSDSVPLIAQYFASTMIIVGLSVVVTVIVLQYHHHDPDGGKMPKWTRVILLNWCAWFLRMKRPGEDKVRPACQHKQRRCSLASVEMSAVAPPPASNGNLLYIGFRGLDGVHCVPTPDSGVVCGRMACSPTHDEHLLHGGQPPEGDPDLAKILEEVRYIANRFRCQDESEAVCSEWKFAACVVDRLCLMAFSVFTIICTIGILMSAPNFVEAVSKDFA

Point of comparison: `CC1(C)[C@H](NC(=O)c2cc3ccc(C4CCOCC4)cc3s2)C2CCN1CC2` [(R)-50, (R)—N-(2,2-dimethylquinuclidin-3-yl)-6-(tetrahydro-2H-pyran-4-yl)benzo[b]thiophene-2-carboxamide hydrochloride], “% ACh @ 10 μM Oocyte” value 0 % ACh. Against it:
- CC1(C)[C@@H](NC(=O)c2cc3cccc(F)c3s2)C2CCN1CC2 [(S)-4, (S)—N-(2,2-dimethylquinuclidin-3-yl)-7-fluoro-benzo[b]thiophene-2-carboxamide hydrochloride] — higher, 17 % ACh
- CC1(C)[C@@H](NC(=O)c2cc3cccnc3s2)C2CCN1CC2 [(S)-28, (S)—N-(2,2-dimethylquinuclidin-3-yl)thieno[2,3-b]pyridine-2-carboxamide hydrochloride] — higher, 1 % ACh
- O=C(N[C@@H]1C2CCN(CC2)C12CC2)c1ccc2occc2n1 [(R)-90, (R)—N-(1′-azaspiro[cyclopropane-1,2′-bicyclo[2.2.2]octan]-3′-yl)furo[3,2-b]pyridine-5-carboxamide hydrochloride] — higher, 3 % ACh
- COc1ccc2sc(C(=O)N[C@H]3C4CCN(CC4)C3(C)C)cc2c1 [(S)-21, (S)—N-(2,2-dimethylquinuclidin-3-yl)-5-methoxybenzo[b]thiophene-2-carboxamide hydrochloride] — higher, 1 % ACh
- Cc1nc2ccc(C(=O)N[C@@H]3C4CCN(CC4)C3(C)C)cc2s1 [(R)-35, (R)—N-(2,2-dimethylquinuclidin-3-yl)-2-methylbenzo[d]thiazole-6-carboxamide hydrochloride] — higher, 6 % ACh
- O=C(N[C@@H]1C2CCN(CC2)C12CC2)c1cc2cccc(Cl)c2o1 [(R)-164, (R)-7-chloro-N-(1′-azaspiro[cyclopropane-1,2′-bicyclo[2.2.2]octan]-3′-yl)benzofuran-2-carboxamide hydrochloride] — higher, 266 % ACh

Same assay, conditions: 0.01 mM test compound, peak current relative to 0.2 mM ACh; hydrochloride

Point of comparison: `O=C(NC1C2CCN(CC2)C12CC2)c1cc2cc(Cl)ccc2s1` (single isomer, unassigned; enantiomer1) [66a, 5-chloro-N-(1′-azaspiro[cyclopropane-1,2′-bicyclo[2.2.2]octan]-3′-yl)benzo[b]thiophene-2-carboxamide-enantiomer1 hydrochloride], “% ACh @ 10 μM Oocyte” value 2 % ACh. Against it:
- O=C(NC1C2CCN(CC2)C12CC2)c1cc2ccc(C3CC3)cc2s1 (single isomer, unassigned; enantiomer2) [71b, 6-cyclopropyl-N-(1′-azaspiro[cyclopropane-1,2′-bicyclo[2.2.2]octan]-3′-yl)benzo[b]thiophene-2-carboxamide-enantiomer2 hydrochloride] — the same, 2 % ACh
- O=C(NC1C2CCN(CC2)C12CC2)c1cc2ccccc2s1 (single isomer, unassigned; enantiomer2) [54b, N-(1′-azaspiro[cyclopropane-1,2′-bicyclo[2.2.2]octan]-3′-yl)benzo[b]thiophene-2-carboxamide-enantiomer2 hydrochloride] — higher, 1319 % ACh
- O=C(NC1C2CCN(CC2)C12CC2)c1cc2ccc(C3CC3)cc2s1 (single isomer, unassigned; enantiomer1) [71a, 6-cyclopropyl-N-(1′-azaspiro[cyclopropane-1,2′-bicyclo[2.2.2]octan]-3′-yl)benzo[b]thiophene-2-carboxamide-enantiomer1 hydrochloride] — higher, 739 % ACh
